US20250143290A1, “AGROCHEMICAL COMPOSITION COMPRISING AT LEAST ONE AGROCHEMICAL ACTIVE COMPONENT AND A SOLVENT” (MINAGRO SRL, priority 2022, published 2025)

What was measured:
[1] = Hansen and Hildebrand solubility parameters
From the text: The Hansen solubility parameters are used for predicting if one material will dissolve in another and form a (homogeneous) solution.
Furthermore, solvents with similar Hansen solubility parameters will have similar solubility characteristics, including which agrochemical active components will and which agrochemical active components will not dissolve in the solvents.

physchem = details: for solubility: organic solvent or mixture, thermodynamic from solid
From the text: Said saturated solutions were subsequently analyzed by HPLC to determine the agrochemical active component concentration. The samples were centrifuged and filtered twice through 1.6 and 0.45 μm filters to remove any extraneous material prior to analysis.
For each combination of agrochemical active component, a calibration curve was established to plot the instrumental response, e.g., the analytical signal, changes with the concentration of the agrochemical active component.

Lactuca sativa = test: Phytotoxicity study on lettuce; type: in vivo; details: lettuce Lucrecia RZ sprayed until saturation at 1%, 2%, 5% and 10%; 5 and 10 days after spraying
Description: The aim of this experiment is to determine if these solvents can cause phytotoxicity on lettuce at different concentrations. Lettuce of the Lucrecia RZ variety was sown in potting soil and transplanted into 3L pots. For each of the solvents, four concentrations were tested: 1%, 2%, 5% and 10%. A control (water) was also performed. […] Fifteen replicates per treatment were conducted. A monitoring of the appearance of potential spots due to phytotoxicity is carried out 5 days and 10 days after spraying.

[2] = system: microorganisms of the inoculum
Description: The test duration is 28 days. The vessels contained 250 ml of the inoculated buffered mineral salt medium and the test material (test substance or reference substance) as the sole carbon source. To each test series blanks (without test material) were set up to run in parallel. Incubation was conducted at 22±1° C. in diffuse light and agitation by magnetic stirrers. All analyses were conducted at least in duplicate. Oxygen consumption was continuously measured with a respirometer. The amount of oxygen taken up by the microorganisms during biodegradation (biological oxygen demand; BOD) is compared with the chemical oxygen demand (COD) of the test substance. The percent biodegradation of the test substance is calculated from the BOD in relation to the COD or alternative of the theoretical oxygen demand (ThOD) of the test substance. The test material (92 mg/L) was distributed in a thin layer on an inert carrier (glass fiber filter) and added directly to the aqueous medium.

Structure (SMILES) | Hansen Solubility Parameters δd [1] [J/mL] | Hansen Solubility Parameters δn [1] [J/mL] | Hansen Solubility Parameters δp [1] [J/mL] | Hildebrand δ [1] [J/mL] | further results
O=C1CCCCC1 [Cyclohexanone] | 17.8 | 5.1 | 6.3 | 19.56 | 
CCOC(C)=O [Ethyl Acetate] | 15.8 | 7.2 | 5.3 | 18.15 | 
Nc1c(Cl)c(F)nc(OCC(=O)O)c1Cl [Fluroxypyr] |  |  |  |  | Solubility in saturation (physchem): 546.25 g/L; solubility (physchem; Solubility in saturation): 537 mg/mL
CC1=CC(=O)CC(C)(C)C1 [Isophorone] | 16.6 | 7.4 | 8.2 | 19.94 | 
CC1(C)CCC(Cc2ccc(Cl)cc2)C1(O)Cn1cncn1 (stereo not shown) [Metconazole] |  |  |  |  | solubility (physchem; Solubility in saturation): 210 mg/mL
COC(=O)Nc1cccc(OC(=O)Nc2cccc(C)c2)c1 [Phenmidipham] |  |  |  |  | Solubility in saturation (physchem; in n-butyl THF, saturated solution MT 181, HPLC, pure active ingredient): 35.66 g/L; Solubility in saturation (physchem; in t-butyl THF, saturated solution MT 181, HPLC, pure active ingredient): 37.11 g/L
OC(Cc1ccccc1Cl)(Cn1nc[nH]c1=S)C1(Cl)CC1 (stereo not shown) [Prothioconazole] |  |  |  |  | solubility (physchem): 341 mg/mL
CC(COc1ccc(Oc2ccccc2)cc1)Oc1ccccn1 (stereo not shown) [Pyriproxyfen] |  |  |  |  | solubility (physchem; Solubility in saturation): 631 mg/mL
OCC1CCCO1 (stereo not shown) [THFA TetraHydroFurfurylAlcohol, TetraHydroFurfurylAlcohol] | 17.8 | 10.2 | 8.2 | 22.09 | 
CC(C)(C)C(O)(CCc1ccc(Cl)cc1)Cn1cncn1 (stereo not shown) [Tebuconazole] |  |  |  |  | solubility (physchem; Solubility in saturation): 181 mg/mL; solubility (physchem; t-butyl THF, Solubility in saturation, in t-butyl THF, saturated solution MT 181, HPLC, pure active ingredient): 188 mg/mL
CCCCOCC1CCCO1 (stereo not shown) [n-butyl THF, 2-(butoxymetyl)tetrahydrofuraan] | 16.47 | 5.96 | 4.74 | 18.15 | phytotoxicity on salads (spots) (Lactuca sativa): absence of phytotoxicity; inhibition of the microorganisms of the inoculum [2]: non-inhibitory
CCCCOC(C)=O [n-butyl acetate] | 15.8 | 6.3 | 3.7 | 17.41 | 
Cc1ccc(C)cc1 [p-Xylène] | 17.6 | 3.1 | 1 | 17.90 | 
CC(C)(C)OCC1CCCO1 (stereo not shown) [t-butyl THF, 2-(tert-Butoxymethyl)tetrahydrofuran] |  |  |  |  | phytotoxicity on salads (spots) (Lactuca sativa): absence of phytotoxicity
